From patent publication US20140130208A1, “METHODS AND MEANS TO PRODUCE ABIOTIC STRESS TOLERANT PLANTS” (VIB VZW, priority 2011, published 2014)

Key:
[1] = system: Arabidopsis thaliana third true leaf; assay: Growth (kinematic) analysis of the third leaf after transfer of seedlings to mannitol- or ACC-containing medium; type: in vivo
Description: Arabidopsis seedlings were germinated and grown on nylon meshes overlaying control medium until 9 days after stratification (DAS), when the third true leaf is fully proliferating (Skirycz et al., 2010), and subsequently transferred to control or mannitol-containing medium (FIGS. 1A to 10). Kinematic analysis was performed, whereby leaves were harvested daily throughout development of leaf 3 (9-20 DAS) and based on drawings of the abaxial epidermis cell number, cell area, number of guard cells and cell division and cell expansion rates were calculated (De Veylder et al., 2001). […] Leaf and plant morphology were not altered by mannitol (FIG. 2C). Cell expansion was also affected by stress and the reduced final leaf area was a combination of fewer and smaller cells (FIG. 2D). The stomatal index, which represents the number of stomata as a fraction of the total number of cells, was reduced as well (FIG. 2E). To learn more about the mechanisms underlying the rapid reduction of cell division upon stress onset, we harvested leaf samples daily after transfer. As a measure of cellular differentiation, the ploidy distribution was examined by flow cytometry. […] In stressed leaves, 4C nuclei started to accumulate approximately one day earlier than in controls at the expense of 2C nuclei (FIG. 3A). Analogously, the number of 8C nuclei increased sharply at 14 DAS in stressed leaves, but only at 15 DAS in control samples (FIG. 3A). Again, transfer itself had no effect on ploidy levels (not shown). […] This observation was further investigated with a CYCB1;1:Dbox-GUS reporter line. Staining for CYCB1;1:Dbox-GUS activity visualizes cells at the G2-to-M transition, reflecting mitotic activity (Colón-Carmona et al., 1999). The most apparent differences were observed 48 h after transfer. […] While the relative size of the cell proliferation zone was similar in mannitol-treated leaves, the remaining proliferating cells were found in a dispersed pattern throughout this zone. […] Within a few days after transfer, division rates adapted to the new conditions and compensation effects were observed.
Seedlings of Arabidopsis thaliana (L.) Heyhn. ecotype Columbia-0 (Col-0) were grown in vitro in half-strength Murashige and Skoog medium (Murashige and Skoog, 1962), supplemented with 1% sucrose under a 16-h day (110 μmol m^−2 s^−1) and 8-h night regime. Plates were overlaid with nylon mesh (Prosep, Zaventem, Belgium) of 20 μm pore size to avoid that roots grew into the medium. Depending on the experiment, 32 or 64 seeds were equally distributed on a 150-mm diameter plate. Mutant plants were grown together with their wild-type controls on the same plate.
(§1) At 9 DAS, when the third leaf is fully proliferating, seedlings were transferred to plates containing control medium or medium supplemented with 25 mM mannitol (Sigma-Aldrich) or 5 μM ACC (Sigma-Aldrich) by gently lifting the nylon mesh with forceps. For the CDKA activity assay the transfer was done at 11 DAS; at this stage, the third leaf is still dividing and can be quickly harvested without the need for RNAlater solution (see below) that would inhibit CDKA activity. All transfers were performed 2-3 h into the day.
Growth analysis was performed on the third true leaf harvested at different time points after transfer. After clearing with 70% ethanol, leaves were mounted in lactic acid on microscopic slides. For each experiment, 8-12 leaves were photographed with a binocular, and epidermal cells (40-300) were drawn for four representative leaves with a DMLB microscope (Leica) fitted with a drawing tubus and a differential interference contrast objective. Photographs of leaves and drawings were used to measure leaf and cell area, respectively, with ImageJ v1.41o (NIH; http://rsb.info.nih.gov/ij/), from which the cell numbers were calculated. The stomatal index was defined as the percentage of stomata per all cells. […]

[2] = system: Arabidopsis thaliana third true leaf; assay: Ploidy analysis of leaf 3 by flow cytometry (endoreduplication onset); type: in vivo; details: transfer at 9 DAS to 25 mM mannitol or 5 μM ACC
Description: Arabidopsis seedlings were germinated and grown on nylon meshes overlaying control medium until 9 days after stratification (DAS), when the third true leaf is fully proliferating (Skirycz et al., 2010), and subsequently transferred to control or mannitol-containing medium (FIGS. 1A to 10). Kinematic analysis was performed, whereby leaves were harvested daily throughout development of leaf 3 (9-20 DAS) and based on drawings of the abaxial epidermis cell number, cell area, number of guard cells and cell division and cell expansion rates were calculated (De Veylder et al., 2001). […] Leaf and plant morphology were not altered by mannitol (FIG. 2C). Cell expansion was also affected by stress and the reduced final leaf area was a combination of fewer and smaller cells (FIG. 2D). The stomatal index, which represents the number of stomata as a fraction of the total number of cells, was reduced as well (FIG. 2E). To learn more about the mechanisms underlying the rapid reduction of cell division upon stress onset, we harvested leaf samples daily after transfer. […]
For flow cytometry analysis, nuclei were extracted by chopping 4-32 leaves with a razor blade in 1 ml of 45 mM MgCl2, 30 mM sodium citrate, 20 mM 3-(N-morpholino)propanesulfonic acid, pH 7, and 1% Triton X-100 (Galbraith et al., 1983). […] The nuclei were analyzed with a CyFlow flow cytometer with the FloMax Software (Partec).

[3] = system: CYCB1;1:Dbox-GUS reporter line; assay: CYCB1;1:DBox-GUS staining of mitotic activity in leaf 3; type: in vivo, Arabidopsis thaliana; details: 48 h after transfer to 25 mM mannitol or 5 μM ACC
Description: Arabidopsis seedlings were germinated and grown on nylon meshes overlaying control medium until 9 days after stratification (DAS), when the third true leaf is fully proliferating (Skirycz et al., 2010), and subsequently transferred to control or mannitol-containing medium (FIGS. 1A to 10). Kinematic analysis was performed, whereby leaves were harvested daily throughout development of leaf 3 (9-20 DAS) and based on drawings of the abaxial epidermis cell number, cell area, number of guard cells and cell division and cell expansion rates were calculated (De Veylder et al., 2001). […] Leaf and plant morphology were not altered by mannitol (FIG. 2C). Cell expansion was also affected by stress and the reduced final leaf area was a combination of fewer and smaller cells (FIG. 2D). The stomatal index, which represents the number of stomata as a fraction of the total number of cells, was reduced as well (FIG. 2E). To learn more about the mechanisms underlying the rapid reduction of cell division upon stress onset, we harvested leaf samples daily after transfer. As a measure of cellular differentiation, the ploidy distribution was examined by flow cytometry. […] In stressed leaves, 4C nuclei started to accumulate approximately one day earlier than in controls at the expense of 2C nuclei (FIG. 3A). […]

CDKA = CDKA activity assay on protein extracted from proliferating third leaves; type: in vivo, Arabidopsis thaliana
Description: as §1
Total soluble protein was extracted from 50 leaves by adding extraction buffer (Van Leene et al., 2007) to ground samples, followed by two freeze-thaw steps and two centrifugation steps (20,817 g, 10 min, 4° C.), whereby the supernatant was collected each time. Equal amounts of total protein were incubated with p9^CKS1Hs-sepharose beads (De Veylder et al., 1997) and kinase assays were performed as described (De Veylder et al., 1997) with histone H1 as CDK substrate. To correct for the amount of CDKA protein purified by p9^CKS1Hs-sepharose beads, an aliquot of each sample was used for protein gel blot analysis with primary rabbit anti-PSTAIRE antibodies (Santa Cruz) (diluted 1:5000) and a secondary horseradish peroxidase-conjugated donkey anti-rabbit antibodies (GE-Healthcare) (diluted 1:10,000). Proteins were detected by chemiluminescence (Western Lightning Plus ECL, PerkinElmer Life Sciences). CDK activity and CDKA amount were quantified with ImageJ v1.41o. Control samples were arbitrarily set at 100%.

CDKB2;1 and CYCB1;1 = assay: Expression of mitotic cell cycle genes CDKB2;1 and CYCB1;1; type: in vivo, Arabidopsis thaliana; details: 5 μM ACC
[4] = transfer at 9 DAS to 25 mM mannitol or 5 μM ACC, leaf 3

## 1-aminocyclopropane-1-carboxylate [ACC]
[1]; ein3.1 and eil1 mutants
  ACC-related decrease in leaf area: comparable to that of the wild-type
[1]; etr1.3, ein5.1, mkk9 and ein2.5 mutants, versus wild type
  ACC-related decrease in leaf area: significantly less
[1]; [4]
  cell proliferation rates: rapid reduction of cell proliferation rates
  stomatal index: not affected
[2]
  endoreduplication onset: no changes in endoreduplication onset
[3]
  number of mitotic cells (CYCB1;1:DBox-GUS activity): no changes in the number of mitotic cells
CDKA; ACC treatment, etr1.3 and ein5.1 mutants
  CDKA activity reduced: not
CDKA; ACC treatment, wild-type and ein3.1
  CDKA activity: reduced
CDKA; wild type, 10 and 24 h after transfer to 25 mM mannitol or 5 μM ACC
  CDKA activity: decreased as early as 10 h after transfer
CDKB2;1 and CYCB1;1
  expression of mitotic cell cycle genes CDKB2;1 and CYCB1;1: no difference
